Columns and labels:
[1] = target: influenza A virus N1 sialidase [A/HongKong/156/97 (H5N1)] wild type (Influenza A virus, UniProt Q9W7Y7); test: biochemical
[2] = test system: A/Paris/0497/2007 (H1N1, H274); test: microbe, parasite or virus in culture; format: cell-based, influenza virus; details: for EC50: Influenza A virus, H1N1, 72 h, read-out: EC50, 50% reduction of the average plaque diameter
A/Paris/908/97 (H3N2) = test: microbe, parasite or virus in culture; format: cell-based, influenza virus; details: for EC50: Influenza A virus, H3N2, 72 h, read-out: EC50, 50% reduction of the average plaque diameter
[3] = target: influenza A virus N2 sialidase [A/Paris/908/97 (H3N2)] (Influenza A virus, UniProt Q9EA36); format: biochemical

Structure (SMILES): CC(=O)N[C@H]1[C@H]([C@H](O)[C@H](O)CO)OC(C(=O)O)=C[C@@H]1O [Neu5Ac2en, reference compound]
- Ki [1]: 0.97 ± 0.15 µM
- EC50 [2]: 20 µM
- EC50 (A/Paris/908/97 (H3N2)): 20 µM
- Ki [3]: 1.24 ± 0.23 µM

Structure (SMILES): CC(=O)NC1C(O)C(CC=Cc2ccc(C)cc2)=C(C(=O)O)OC1C(O)C(O)CO (stereo not shown) [Compound 9d]
- change in plaque size [2]: significant decrease in plaque size
- EC50 [2]: 80 µM
- change in plaque size (A/Paris/908/97 (H3N2)): little or no visible difference in plaque size
- EC50 (A/Paris/908/97 (H3N2)): > 1000 µM

Structure (SMILES): C=CCC1=C(C(=O)O)O[C@@H]([C@H](O)[C@H](O)CO)[C@H](NC(C)=O)[C@H]1O [Compound 7, 5-Acetamido-2,6-anhydro-3,5-dideoxy-3-C-(prop-2′-enyl)-D-glycero-D-galacto-non-2-en-onic acid]
- EC50 [2]: 1800 µM
- EC50 (A/Paris/908/97 (H3N2)): > 5000 µM

Reference: patent US20120202877A1 (priority 2009, published 2012)
